{"source": "patent US9121022B2", "about": "“Method for controlling herbicide-resistant plants” (priority 2010, dated 2015)", "tested_on": "Nicotiana benthamiana plants (endogenous PDS, EPSPS, RuBisCO genes)", "test": "PDS, EPSPS or RuBisCO anti-sense polynucleotides on Nicotiana benthamiana, plant height and phenotype (Example 33)", "format": "in vivo", "excerpt": "An anti-sense polynucleotide with the sequence […] (SEQ ID NO:34) was designed for the endogenous Nicotiana benthamiana phytoene desaturase (PDS) gene, which has the cDNA sequence fragments […] […] (SEQ ID NO:38). Anti-sense polynucleotides with the sequences […] (SEQ ID NO:279), […] (SEQ ID NO:280), […] (SEQ ID NO:281), […] (SEQ ID NO:282), […] (SEQ ID NO:283), and […] (SEQ ID NO:284) were designed for the endogenous Nicotiana benthamiana 5-enolpyruvylshikimate-3-phosphate synthase (EPSPS) gene, based on the Nicotiana benthamiana EPSPS cDNA sequence […] […] (SEQ ID NO:285), […] […] (SEQ ID NO:286), and […] […] (SEQ ID NO:287). Anti-sense polynucleotides with the sequences […] (AK195, RBCS—1-2-3-4, SEQ ID NO:288), […] (AK196, RBCS—1-2-3-4, SEQ ID NO:289), […] (AK197, RBCS—1-2-3-4, SEQ ID NO:290), […] (AK198, RBCS—1-2, SEQ ID NO:291), […] (AK199, RBCS—1-2, SEQ ID NO:292), […] (AK200, RBCS—3-4, SEQ ID NO:293), […] (AK201, RBCS—3-4, SEQ ID NO:294), and […] (AK202, RBCS—3-4, SEQ ID NO:295) were designed for the endogenous Nicotiana benthamiana ribulose-1,5-bisphosphate carboxylase oxygenase (RuBisCO) gene, based on the Nicotiana benthamiana chloroplastic RuBisCO small chain 2A cDNA sequence fragments • […] […]", "data": [{"sequence": "CATCTCCTTTAATTGTACTGC (DNA, backbone not given here) [PDS 21-mer anti-sense ssDNA]", "values": [{"measurement": "plant height (FIGS. 36A-36C)", "setting": "12 days (PDS and EPSPS) or 10 days (RuBisCO) after treatment", "value": "severe stunting"}, {"measurement": "other phenotype", "setting": "PDS 25 nanomoles, EPSPS and RuBisCO 50 nanomoles of each polynucleotide per plant", "value": "bleaching"}]}]}
